Legend:
HEK‐APP695WT cells = assay: CellTiter-Glo cell viability, HEK cells; assay type: cell-based, human; settings: 10 µM, 72 h
LN229 and HCT116 cells = assay: Cancer cell viability; assay type: cell-based, human
APP mRNA = assay: qRT-PCR of APP mRNA; assay type: cell-based, human; settings: 72 h
Protocol: Total RNA was isolated using the RNeasy kit (Qiagen), followed by synthesis for cDNA with a reverse transcription reaction (Quantitect Reverse Transcription kit). The sequences for APP and GAPDH are in Table S1. Quantitative PCR was performed on QuantStudio 6 Flex (Applied Biosystems). The expression levels of APP were normalized to the GAPDH mRNA levels and represented relative to the expression in control cells. The results were analyzed with the delta‐delta‐Ct methods. Ct values were calculated using QuantStudio Design & Analysis Software, and relative expression levels were analyzed with GraphPad Prism.

APP = APP (Homo sapiens, UniProt P05067); assay: Western blot of APP in HEK-APP695WT cells; assay type: cell-based; design: expressed in transfected cells; settings: 72 h
CAPRIN1–APP interaction = CAPRIN1–APP interaction (Homo sapiens, UniProt P05067+Q14444); assay: In vitro binding assay, recombinant CAPRIN1 and APP (reciprocal co-IP); design: recombinant human CAPRIN1 (full length, 100 ng) was added; purchased Biolegend; settings: concentration-dependent
Protocol: When CAPRIN1 was used as a bait, recombinant CAPRIN1 (200 ng) was mixed with anti‐CAPRIN1 antibodies (1 µg) in IP buffer (25 mM Tris, 150 mM NaCl, 5% Glycerol, and 1% Triton X‐100 at pH 7.4) overnight at 4°C, followed by the addition of Protein‐G agarose beads for 4 h at 4°C. CAPRIN1 conjugated beads were then washed with binding buffer (20 mM HEPES, 100 mM NaCl, 0.01% Triron X‐100, and 5% Glycerol at pH 7.25) before the addition of recombinant human APP (prey) for 1 h at 4°C. Beads were washed and eluted with Laemmli buffer with boiling, followed by Western blotting. When APP was used as a bait, biotin‐conjugated APP antibody (1 µg; 4G8, Biolegend) was pre‐mixed with recombinant APP (100 ng, Biolegend) in pulldown buffer (0.1% NP‐40, 50 mM Tris, 150 mM NaCl, 0.2 mM EDTA, 100 mM KCl, 1 mM MgCl2, 0.2 mM CaCl2, and 10% glycerol) overnight at 4°C, followed by addition of 0.5 mg of Streptavidin magnetic beads (Pierce) for 1 h at 4°C. After washing the beads, recombinant human CAPRIN1 (full length, 100 ng) was added together with dose‐dependent 0043 in the binding buffer for 1 h at 4°C. Beads were washed and eluted with Laemmli buffer with boiling, followed by Western blotting.

CAPRIN1 and APP = target: T1, CAPRIN1 and APP (Homo sapiens, UniProt P05067+Q14444); assay: Streptavidin pull-down with biotinylated 0152 in AG27606-N lysates; assay type: binding
T1 construct: endogenous in cells; host or cells: AG27606-Ns, sAD2.3-Ns (iPSC-derived neurons) and their lysates

[1] = system: AD iPSC‐derived organoids; assay: AD iPSC-derived 3D brain organoids; assay type: cell-based, human
Protocol: For generating brain 3D organoids, Lancaster's protocol and Paşca's protocol were used with minor modifications. In brief, 9000 cells/ 100 µL of each well were seeded in Ultra‐low attachment 96 well U‐bottom plates (Sbio) supplemented with 10 µM of ROCK inhibitor. The next day, 100 µL of mTeSR1 was added, and the cells were cultured as embryonic bodies (EB) for 5 days at 37°C in 5% CO2 incubator. When the size of EB reached 400–600 µm, EBs were transferred into ultra‐low binding 24 well (Corning) with 200 µL of neural differentiation medium (Neurobasal medium (Gibco), 2% B27, 1X Glutamax) with 2 µg/mL of Doxycycline and incubated for 5 days at 37°C in 5% CO2 incubator until the size of EB was 700–800 µm. During this step, one EB was in one well, and the culture medium was changed every day with fresh neural differentiation medium with Doxycycline. At day 10, the EB was embedded into 15 µL of 100% Matrigel (Corning), and the embedded EBs were cultured in neural differentiation medium without Doxycycline in 6 well ultra‐low binding plates (Corning). […]
iPSC‐Ns or HEK‐APP695WT were treated with drugs, and secreted Aβ42 peptides inculture soup were quantified using the Human Amyloid β1‐42 human ELISA kit (Thermo Fisher) according to the manufacturer's protocol. […] Prior to quantification, formic acid‐containing samples were neutralized with 1 M Tris base (pH 11). Aβ40 and Aβ42 levels were measured using human‐specific ELISA kits (Invitrogen) and normalized to total protein concentrations determined by the BCA assay (Thermo Scientific). For Aβ quantification in 3D organoids, 3D organoids’ processing and ELISA analysis were performed with minor modifications from previously described protocols. […] Aβ42 levels in both fractions were measured using human‐specific ELISA kits (Thermo Fisher) according to the manufacturer's instructions. […] Aβ levels were normalized to total protein concentration determined by BCA assay. […]

Sequence of APP (P05067 18-695 isoform P05067-4 limits assumed): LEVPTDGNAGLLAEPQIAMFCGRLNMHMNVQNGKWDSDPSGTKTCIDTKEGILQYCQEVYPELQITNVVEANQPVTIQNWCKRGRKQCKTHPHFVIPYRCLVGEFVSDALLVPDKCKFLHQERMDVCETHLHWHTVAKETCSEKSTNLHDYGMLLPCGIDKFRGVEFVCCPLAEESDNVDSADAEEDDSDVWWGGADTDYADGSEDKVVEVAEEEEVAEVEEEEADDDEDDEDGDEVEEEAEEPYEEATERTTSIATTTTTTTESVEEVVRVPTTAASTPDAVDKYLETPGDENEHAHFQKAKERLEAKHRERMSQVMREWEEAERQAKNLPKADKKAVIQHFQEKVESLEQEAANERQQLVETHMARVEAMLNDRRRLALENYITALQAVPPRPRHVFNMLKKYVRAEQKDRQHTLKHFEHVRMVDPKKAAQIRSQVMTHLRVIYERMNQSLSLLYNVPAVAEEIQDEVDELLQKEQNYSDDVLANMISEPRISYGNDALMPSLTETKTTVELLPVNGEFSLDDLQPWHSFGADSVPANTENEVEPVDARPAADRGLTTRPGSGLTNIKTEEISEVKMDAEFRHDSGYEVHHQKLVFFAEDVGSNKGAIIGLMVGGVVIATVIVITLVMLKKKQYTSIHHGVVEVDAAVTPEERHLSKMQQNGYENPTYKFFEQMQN
Sequence of CAPRIN1–APP interaction (Q14444 whole entry): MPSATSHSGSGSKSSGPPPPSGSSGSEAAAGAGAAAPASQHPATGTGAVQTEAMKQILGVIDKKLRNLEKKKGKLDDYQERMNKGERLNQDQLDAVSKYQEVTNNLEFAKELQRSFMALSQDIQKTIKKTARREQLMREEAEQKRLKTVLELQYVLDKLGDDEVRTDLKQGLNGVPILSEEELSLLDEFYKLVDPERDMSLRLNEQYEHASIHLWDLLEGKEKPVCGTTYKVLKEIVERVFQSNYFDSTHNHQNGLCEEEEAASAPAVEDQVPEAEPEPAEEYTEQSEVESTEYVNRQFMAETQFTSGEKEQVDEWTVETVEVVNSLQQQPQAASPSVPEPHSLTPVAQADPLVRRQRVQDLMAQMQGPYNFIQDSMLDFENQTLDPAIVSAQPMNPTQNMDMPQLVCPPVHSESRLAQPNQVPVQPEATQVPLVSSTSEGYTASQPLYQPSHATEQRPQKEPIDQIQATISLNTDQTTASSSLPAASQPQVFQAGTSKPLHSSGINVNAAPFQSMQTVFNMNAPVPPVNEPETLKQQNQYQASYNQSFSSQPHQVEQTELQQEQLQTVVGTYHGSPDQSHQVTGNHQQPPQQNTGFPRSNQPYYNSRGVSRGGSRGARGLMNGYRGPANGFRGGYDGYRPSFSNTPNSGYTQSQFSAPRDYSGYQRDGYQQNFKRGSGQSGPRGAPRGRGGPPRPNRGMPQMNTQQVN
Sequence of CAPRIN1–APP interaction (P05067 18-770): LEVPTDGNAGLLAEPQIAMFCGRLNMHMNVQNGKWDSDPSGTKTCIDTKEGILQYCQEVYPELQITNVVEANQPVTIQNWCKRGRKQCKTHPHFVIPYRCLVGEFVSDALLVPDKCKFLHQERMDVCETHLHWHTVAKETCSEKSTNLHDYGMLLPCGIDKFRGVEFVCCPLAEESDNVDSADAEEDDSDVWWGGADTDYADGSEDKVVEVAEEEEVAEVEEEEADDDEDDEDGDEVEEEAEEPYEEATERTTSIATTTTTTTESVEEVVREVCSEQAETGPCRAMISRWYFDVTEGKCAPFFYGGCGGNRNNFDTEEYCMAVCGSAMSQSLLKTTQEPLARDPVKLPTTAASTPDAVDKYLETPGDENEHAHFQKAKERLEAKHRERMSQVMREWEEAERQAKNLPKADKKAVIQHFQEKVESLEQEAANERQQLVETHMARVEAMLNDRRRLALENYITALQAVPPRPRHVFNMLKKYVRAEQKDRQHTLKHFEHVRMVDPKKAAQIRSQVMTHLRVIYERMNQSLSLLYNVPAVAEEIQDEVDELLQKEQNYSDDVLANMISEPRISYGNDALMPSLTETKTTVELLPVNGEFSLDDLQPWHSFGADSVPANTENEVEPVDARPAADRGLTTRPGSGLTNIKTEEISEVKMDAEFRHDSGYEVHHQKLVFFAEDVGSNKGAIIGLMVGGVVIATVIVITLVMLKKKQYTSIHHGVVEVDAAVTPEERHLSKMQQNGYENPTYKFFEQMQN

Compound	Cell viability (CellTiter-Glo) (HEK‐APP695WT cells)	Cancer cell growth (LN229 and HCT116 cells)	APP mRNA expression (qRT-PCR) (APP mRNA; AD iPSC-Ns)	APP mRNA (qRT-PCR) (APP mRNA; HEK-APP695WT cells)	Intracellular APP (western blot) (APP; HEK-APP695WT cells, increasing concentrations)	Effects on APP and Aβ42 in CAPRIN1 KO cells (APP; sgCAPRIN1 HEK-APP695WT cells, 10 µM)	Interaction of recombinant CAPRIN1 and APP (reciprocal co-IP) (CAPRIN1–APP interaction)	Competition of the 0152-biotin pull-down by excess free compound (CAPRIN1 and APP)	APP/Aβ42 immunoreactivity in organoids ([1]; AG27606 and UKBi011A organoids, 10 µM)	Aβ42 in organoids by ELISA ([1]; AG27606 organoids, RIPA-soluble and formic acid-solubilized fractions)	CAPRIN1–APP colocalization in organoids ([1]; AG27606 organoids, treated for three months)
N#Cc1cccc(NC(=O)Nc2nc3ccc(C(=O)N4CCOCC4)cc3s2)c1 [compound 0043]	without inducing cytotoxicity	no effects	nor did it alter APP mRNA expression	no significant changes	reduced intracellular APP	abolished	enhanced the interaction between CAPRIN1 and APP	–	–	–	–
COc1cccc(NC(=O)Nc2nc3ccc(C(=O)N4CCOCC4)cc3s2)c1 [compound 0152]	–	–	–	–	–	–	–	competitively inhibited	reduced APP/Aβ42 levels	significantly reduced Aβ42 levels	increased CAPRIN1–APP colocalization
